Results: patent US8389513B2, “2-amino-5,5-difluoro-5,6-dihydro-4H-[1,3]oxazin-4-yl)-phenyl]-amides” (Hoffmann-La Roche Inc., priority 2009, dated 2013)
pIC50: −log10 of the molar value.

Key:
[1] = biological target: T1, BACE1 (Homo sapiens, UniProt P56817); assay: Cellular Aβ-lowering assay (Aβ40 ELISA); format: cell-based; details: HEK293 cells stably expressing human APP695; Aβ40 in culture supernatant; read-out: BACE1 cell act. Aβ40 IC50
T1 construct: Human HEK293 cells which are stably transfected with a vector expressing a cDNA of the human APP wt gene (APP695); endogenous in cells; host or cells: HEK293 stably transfected with human APP695 wt
Experimental: Cellular Aβ-Lowering Assay:
Human HEK293 cells which are stably transfected with a vector expressing a cDNA of the human APP wt gene (APP695) were used to assess the potency of the compounds in a cellular assay. The cells were seeded in 96-well microtiter plates in cell culture medium (Iscove, plus 10% (v/v) fetal bovine serum, glutamine, penicillin/streptomycin) to about 80% confluence and the compounds were added at a 10× concentration in 1/10 volume of medium without FCS containing 8% DMSO (final concentration of DMSO was kept at 0.8% v/v). After 18-20 hrs incubation at 37° C. and 5% CO2 in a humidified incubator the culture supernatant was harvested for the determination of Aβ40 concentrations. […] Subsequently the wells of the microtiter plate were washed extensively with Tris-buffered saline containing 0.05% Tween 20 and the assay was developed with tetramethylbenzidine/H2O2 in citric acid buffer. After stopping the reaction with one volume 1 NH2SO4 the reaction was measured in an ELISA reader at 450 nm wavelength. The concentrations of Aβ in the culture supernatants were calculated from a standard curve obtained with known amounts of pure Aβ peptide.

[2] = biological target: T2, BACE2 (Rattus norvegicus, UniProt Q6IE75); assay: Assay for BACE inhibition by measuring cellular TMEM27 cleavage; format: cell-based; details: INS-TMEM27 cells (INS1e-derived); shed TMEM27 by ELISA; read-out: BACE2 cell act. IC50
T2 construct: endogenous cellular BACE2 in the Ins1e rat cell line; endogenous in cells; host or cells: INS-TMEM27 (INS1e-derived rat cell line with TetOn-inducible full-length hTMEM27)
T2 sequence (Q6IE75 63-514): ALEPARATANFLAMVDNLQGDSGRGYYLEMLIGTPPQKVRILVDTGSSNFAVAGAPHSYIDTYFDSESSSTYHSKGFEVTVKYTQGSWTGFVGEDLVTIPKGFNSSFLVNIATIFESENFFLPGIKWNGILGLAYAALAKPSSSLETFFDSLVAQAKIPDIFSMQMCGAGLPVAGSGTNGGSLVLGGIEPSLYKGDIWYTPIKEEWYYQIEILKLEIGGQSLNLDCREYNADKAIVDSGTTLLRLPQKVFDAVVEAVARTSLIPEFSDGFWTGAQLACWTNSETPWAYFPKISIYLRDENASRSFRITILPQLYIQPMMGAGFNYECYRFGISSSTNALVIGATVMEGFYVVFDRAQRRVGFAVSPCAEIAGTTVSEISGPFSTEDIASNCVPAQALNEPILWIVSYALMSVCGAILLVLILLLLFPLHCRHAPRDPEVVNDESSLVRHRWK
Source text: Assay for BACE Inhibition by Measuring Cellular TMEM27 Cleavage:
The assay uses the principle of inhibition of human TMEM27 cleavage by endogenous cellular BACE2 in the Ins1e rat cell line and shedding from the cell surface into the culture medium, followed by detection in an ELISA assay. Inhibition of BACE2 prevents the cleavage and shedding in a dose-dependent manner.
The stable cell line “INS-TMEM27” represents an INS1e-derived cell line with inducible expression (using the TetOn system) of full-length hTMEM27 in a doxycycline-dependent manner. The cells are cultured throughout the experiment in RPMI1640+Glutamax (Invitrogen) Penicillin/Streptomycin, 10% Fetal bovine serum, […] pyruvate, […] beta-mercatptoethanol, 100 micrograms/ml G418 and 100 microgram/ml hygromycin and are grown inadherent culture at 37° C. in a standard CO2 cell culture incubator. INS-TMEM27 cells are seeded in 96-well plates. After 2 days in culture, BACE2 inhibitor is added in a range of concentrations as required by the assay and after a further two hours, doxycycline is added to a final concentration of 500 ng/ml. The cells are incubated for a further 46 hours and the supernatant harvested for detection of shed TMEM27.
An ELISA assay (using a pair of mouse anti-human-TMEM27 antibodies, raised against the extracellular domain of TMEM27) is used for detection of TMEM27 in the culture medium. An EC50 for BACE2 inhibition is calculated using the ELISA readout for each inhibitor concentration with standard curve-fitting software such as XLFit for the Excel spreadsheet program.

T1 sequence (P56817 46-501): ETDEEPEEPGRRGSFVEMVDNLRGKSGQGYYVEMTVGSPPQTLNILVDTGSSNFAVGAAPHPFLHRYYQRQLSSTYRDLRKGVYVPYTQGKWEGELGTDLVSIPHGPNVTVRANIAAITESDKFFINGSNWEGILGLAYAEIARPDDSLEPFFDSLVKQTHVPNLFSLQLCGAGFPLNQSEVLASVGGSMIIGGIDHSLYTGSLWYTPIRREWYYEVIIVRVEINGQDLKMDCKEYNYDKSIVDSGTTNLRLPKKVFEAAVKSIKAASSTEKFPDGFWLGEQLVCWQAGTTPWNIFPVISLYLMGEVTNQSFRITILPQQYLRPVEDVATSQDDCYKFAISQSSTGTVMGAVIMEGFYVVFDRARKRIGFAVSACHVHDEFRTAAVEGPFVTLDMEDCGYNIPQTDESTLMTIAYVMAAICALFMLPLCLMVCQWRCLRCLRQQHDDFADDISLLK

`C[C@]1(c2cc(NC(=O)c3ncc(F)cc3Cl)ccc2F)N=C(N)OCC1(F)F` [Example 7, 3-Chloro-5-fluoro-pyridine-2-carboxylic acid [3-((R)-2-amino-5,5-difluoro-4-methyl-5,6-dihydro-4H-[1,3]oxazin-4-yl)-4-fluoro-phenyl]-amide] showed a pIC50 [1] of 7.39 and a pIC50 [2] of 7.31.
In the case of `Cc1cnc(C(=O)Nc2ccc(F)c([C@@]3(C)N=C(N)OC(C)(C)C3(F)F)c2)cn1` [Example 34, 5-Methyl-pyrazine-2-carboxylic acid [3-((R)-2-amino-5,5-difluoro-4,6,6-trimethyl-5,6-dihydro-4H-[1,3]oxazin-4-yl)-4-fluoro-phenyl]-amide], the pIC50 [1] was 7.37 and the pIC50 [2] was 5.45.
`C[C@]1(c2cc(NC(=O)C3CC3(F)F)ccc2F)N=C(N)OCC1(F)F` (mixture of isomers) [Example 74, (RS)-2,2-Difluoro-cyclopropanecarboxylic acid [3-((R)-2-amino-5,5-difluoro-4-methyl-5,6-dihydro-4H-[1,3]oxazin-4-yl)-4-fluoro-phenyl]-amide] was tested, and the pIC50 [1] was 6.29 and the pIC50 [2] was 6.23.
Work on `C[C@]1(c2cc(NC(=O)c3ccc(OCC(F)(F)F)cn3)ccc2F)N=C(N)OCC1(F)F` [Example 14, 5-(2,2,2-Trifluoro-ethoxy)-pyridine-2-carboxylic acid [3-((R)-2-amino-5,5-difluoro-4-methyl-5,6-dihydro-4H-[1,3]oxazin-4-yl)-4-fluoro-phenyl]-amide] yielded a pIC50 [1] of 6.54 and a pIC50 [2] of 4.72.
With `C[C@]1(c2cc(NC(=O)c3ncc(C(F)(F)F)cn3)ccc2F)N=C(N)OCC1(F)F` [Example 16, 5-Trifluoromethyl-pyrimidine-2-carboxylic acid [3-((R)-2-amino-5,5-difluoro-4-methyl-5,6-dihydro-4H-[1,3]oxazin-4-yl)-4-fluoro-phenyl]-amide] the pIC50 [1] was 7.04 and the pIC50 [2] was 5.81.
`CC1(C)OC(N)=N[C@](C)(c2cc(NC(=O)c3ncc(Cl)cn3)ccc2F)C1(F)F` [Example 32, 5-Chloro-pyrimidine-2-carboxylic acid [3-((R)-2-amino-5,5-difluoro-4,6,6-trimethyl-5,6-dihydro-4H-[1,3]oxazin-4-yl)-4-fluoro-phenyl]-amide] showed a pIC50 [1] of 7.80 and a pIC50 [2] of 7.70.
`CC1(C)OC(N)=N[C@](C)(c2cc(NC(=O)c3ncc(Cl)cc3F)ccc2F)C1(F)F` [Example 24, 5-Chloro-3-fluoro-pyridine-2-carboxylic acid [3-((R)-2-amino-5,5-difluoro-4,6,6-trimethyl-5,6-dihydro-4H-[1,3]oxazin-4-yl)-4-fluoro-phenyl]-amide] showed a pIC50 [1] of 7.92 and a pIC50 [2] of 7.15.
In the case of `CC1(C)OC(N)=N[C@](C)(c2cc(NC(=O)c3ccc(OCC(F)(F)F)cn3)ccc2F)C1(F)F` [Example 29, 5-(2,2,2-Trifluoro-ethoxy)-pyridine-2-carboxylic acid [3-((R)-2-amino-5,5-difluoro-4,6,6-trimethyl-5,6-dihydro-4H-[1,3]oxazin-4-yl)-4-fluoro-phenyl]-amide], the pIC50 [1] was 6.85 and the pIC50 [2] was 4.35.
`C[C@]1(c2cc(NC(=O)c3ccc(OCC(F)(F)C(F)(F)F)cn3)ccc2F)N=C(N)OCC1(F)F` [Example 44, 5-(2,2,3,3,3-Pentafluoro-propoxy)-pyridine-2-carboxylic acid [3-((R)-2-amino-5,5-difluoro-4-methyl-5,6-dihydro-4H-[1,3]oxazin-4-yl)-4-fluoro-phenyl]-amide] gave a pIC50 [1] of 6.54 and a pIC50 [2] of 4.84.
For `C[C@]1(c2cc(NC(=O)c3nn(CC(F)F)cc3Cl)ccc2F)N=C(N)OCC1(F)F` [Example 68, 4-Chloro-1-(2,2-difluoro-ethyl)-1H-pyrazole-3-carboxylic acid [3-((R)-2-amino-5,5-difluoro-4-methyl-5,6-dihydro-4H-[1,3]oxazin-4-yl)-4-fluoro-phenyl]-amide], the pIC50 [1] was 6.03 and the pIC50 [2] was 6.64.
Molecule `C[C@]1(c2cc(NC(=O)c3ncc(Cl)nc3Cl)ccc2F)N=C(N)OCC1(F)F` [Example 48, 3,5-Dichloro-pyrazine-2-carboxylic acid [3-((R)-2-amino-5,5-difluoro-4-methyl-5,6-dihydro-4H-[1,3]oxazin-4-yl)-4-fluoro-phenyl]-amide] has a pIC50 [1] of 5.95 and a pIC50 [2] of 5.17.
`CC1(C)OC(N)=N[C@](C)(c2cc(NC(=O)c3ccc(OC(F)F)cn3)ccc2F)C1(F)F` [Example 27, 5-Difluoromethoxy-pyridine-2-carboxylic acid [3-((R)-2-amino-5,5-difluoro-4,6,6-trimethyl-5,6-dihydro-4H-[1,3]oxazin-4-yl)-4-fluoro-phenyl]-amide] gave a pIC50 [1] of 7.33 and a pIC50 [2] of 5.27.
Molecule `CC1(C)OC(N)=N[C@](C)(c2cc(NC(=O)c3cnc(C(F)(F)F)cn3)ccc2F)C1(F)F` [Example 35, 5-Trifluoromethyl-pyrazine-2-carboxylic acid [3-((R)-2-amino-5,5-difluoro-4,6,6-trimethyl-5,6-dihydro-4H-[1,3]oxazin-4-yl)-4-fluoro-phenyl]-amide] has a pIC50 [1] of 7.40 and a pIC50 [2] of 5.32.
`C[C@]1(c2cc(NC(=O)c3cnc(Cl)cn3)ccc2F)N=C(N)OCC1(F)F` [Example 47, 5-Chloro-pyrazine-2-carboxylic acid [3-((R)-2-amino-5,5-difluoro-4-methyl-5,6-dihydro-4H-[1,3]oxazin-4-yl)-4-fluoro-phenyl]-amide] showed a pIC50 [1] of 6.28 and a pIC50 [2] of 4.46.
With `C[C@]1(c2cc(NC(=O)c3ccc(Cl)cn3)ccc2Cl)N=C(N)OCC1(F)F` [Example 50, 5-Chloro-pyridine-2-carboxylic acid [3-((R)-2-amino-5,5-difluoro-4-methyl-5,6-dihydro-4H-[1,3]oxazin-4-yl)-4-chloro-phenyl]-amide] the pIC50 [1] was 7.77 and the pIC50 [2] was 7.62.
For `C[C@]1(c2cc(NC(=O)c3ccc(C#N)cn3)cc(F)c2F)N=C(N)OCC1(F)F` [Example 49, 5-Cyano-pyridine-2-carboxylic acid [3-((R)-2-amino-5,5-difluoro-4-methyl-5,6-dihydro-4H-[1,3]oxazin-4-yl)-4,5-difluoro-phenyl]-amide], the pIC50 [1] was 7.59 and the pIC50 [2] was 6.82.
In the case of `C[C@]1(c2cc(NC(=O)c3ncc(F)cc3F)ccc2F)N=C(N)OCC1(F)F` [Example 4, 3,5-Difluoro-pyridine-2-carboxylic acid [3-((R)-2-amino-5,5-difluoro-4-methyl-5,6-dihydro-4H-[1,3]oxazin-4-yl)-4-fluoro-phenyl]-amide], the pIC50 [1] was 7.51 and the pIC50 [2] was 7.59.
With `Cc1cc(Cl)cnc1C(=O)Nc1ccc(F)c([C@@]2(C)N=C(N)OCC2(F)F)c1` [Example 13, 5-Chloro-3-methyl-pyridine-2-carboxylic acid [3-((R)-2-amino-5,5-difluoro-4-methyl-5,6-dihydro-4H-[1,3]oxazin-4-yl)-4-fluoro-phenyl]-amide] the pIC50 [2] was 7.62.
`Cn1cc(Cl)c(C(=O)Nc2ccc(F)c([C@@]3(C)N=C(N)OCC3(F)F)c2)n1` [Example 18, 4-Chloro-1-methyl-1H-pyrazole-3-carboxylic acid [3-((R)-2-amino-5,5-difluoro-4-methyl-5,6-dihydro-4H-[1,3]oxazin-4-yl)-4-fluoro-phenyl]-amide] showed a pIC50 [2] of 7.82.
